In article PMC3481598, “Hierarchical virtual screening for the discovery of new molecular scaffolds in antibacterial hit identification” (Journal of the Royal Society Interface, 2012):
Where two headings read alike, the source gives them in different places.

What was measured:
[1] = target: T1, type II dehydroquinase from Streptomyces coelicolor (Streptomyces coelicolor, UniProt P15474); conditions: cited from earlier work
H. pylori DHQase = target: H. pylori DHQase; set-up: method as in PMID 16480265; conditions: HTS hit; read-out: Ki against H. pylori DHQase; cited from earlier work
[2] = target: T2, type II dehydroquinase from Mycobacterium tuberculosis (Mycobacterium tuberculosis, UniProt P9WPX7); conditions: search template RP4, known optimized inhibitor; reference not given, probably ref 33; read-out: Ki (Mtb; μM); cited from earlier work
[3] = target: T1, type II dehydroquinase from Streptomyces coelicolor; assay: S. coelicolor DHQase enzyme inhibition in vitro; format: biochemical
Source text: (§1) The next step was to purchase the compounds highlighted by these protocols to test them in vitro against M. tuberculosis DHQase and S. coelicolor DHQase. With the modest budget assigned to this proof of concept (£5000), we could purchase 148 compounds (full details on this process can be found in electronic supplementary material, Materials and methods). Tables 1 and 2 show the performance of each virtual screening protocol against each target (all IC50 measurements are included in the electronic supplementary material). […]. […].
(§2) In order to assess the overall hit rate and potency of these inhibitors, we calculated their inhibition constant (Ki) as explained in electronic supplementary material, Materials and methods (see table 3 for a summary). This is necessary to have a more accurate comparison with hit rates in the literature and with the potency of previously known inhibitors. […]. a total of 40 inhibitors) being noticeably higher than that for M. tuberculosis DHQase (23.6%; 35 inhibitors). […]. This difference might be due to the fact that our protocols are primarily exploiting crystal structures for S. coelicolor DHQase. […].

[4] = target: T2, type II dehydroquinase from Mycobacterium tuberculosis; assay: M. tuberculosis DHQase enzyme inhibition in vitro; format: biochemical; conditions: Ki calculated from measured IC50, read-out: Ki (Mtb; μM)
Source text: as §1, §2

T1 sequence (P15474 whole entry): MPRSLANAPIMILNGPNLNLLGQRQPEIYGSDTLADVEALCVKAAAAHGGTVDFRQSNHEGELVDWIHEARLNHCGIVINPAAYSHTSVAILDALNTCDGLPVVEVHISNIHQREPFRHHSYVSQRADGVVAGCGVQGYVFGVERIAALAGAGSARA
T2 sequence (P9WPX7 whole entry): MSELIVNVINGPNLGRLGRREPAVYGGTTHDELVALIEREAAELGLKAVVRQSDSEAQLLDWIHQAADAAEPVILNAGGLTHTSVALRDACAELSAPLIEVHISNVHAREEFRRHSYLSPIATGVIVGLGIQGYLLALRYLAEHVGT

| SMILES | Ki [3] [µM] | Ki [4] [µM] | other results |
| --- | --- | --- | --- |
| O=C(O)[C@]1(O)C[C@H](CCCOc2ccccc2)[C@@H](O)[C@H](O)C1 [CA2] |  |  | Ki ([1]; read-out: measured Ki (2BT4 ligand)): 33 µM |
| O=c1c2ccccc2oc2ccc(S(=O)(=O)N=c3[nH]nn[nH]3)cc12 [GAJ] |  |  | Ki (H. pylori DHQase): 20 µM |
| O=C(O)[C@]1(O)C=C(c2cccc(Sc3ccccc3)c2)[C@@H](O)[C@H](O)C1 [RP4] |  |  | Ki [2]: 0.38 µM; Ki ([1]; read-out: Ki (Sc; μM), search template RP4, known optimized inhibitor): 0.07 µM |
| O=C(O)[C@H](Cc1ccccc1)N1C(=O)/C(=C/c2cccc3ccccc23)SC1=S [ZINC00978022] | 4 |  |  |
| CC(C)N(C(=O)COC(=O)c1ccc(N)c([N+](=O)[O-])c1)C(C)C [ZINC05657290] | 201 | 192 |  |
| CCOC(=O)C1=C(CSc2nc3ccccc3[nH]2)NC(=O)N[C@H]1C [ZINC06024496] | 174 | 159 |  |
| CC[C@H](C)NC(=O)c1ccccc1NC(=O)Cc1ccccc1 [ZINC10025084] | 148 | 167 |  |
| CC[C@H](C)NC(=O)c1ccccc1NC(=O)Cc1c(F)cccc1Cl [ZINC15608616] | 149 | 150 |  |
| COc1ccc(CC(=O)Nc2cc(C(F)(F)F)ccc2N(C)C)cc1F [ZINC18086350] |  | 166 | inhibition at 224 µM ([3]; read-out: inhibition of S. coelicolor DHQase): 45% |
| O=C(Cn1nc2ccccn2c1=O)N(Cc1cccs1)Cc1cccs1 [ZINC24469052] | 21 |  |  |
